Like-named read-outs stand apart in the source and are kept apart here.
Tests used:
[1] = test system: E. coli TG1 + pBGS18 + FOX-4; experiment: MIC broth microdilution, ceftazidime with or without inhibitor; type: cell-based, Escherichia coli; conditions: for MIC: Escherichia coli; for MIC of ceftazidime in the presence of inhibitor: FOX-4 (Class C, ESBL), inhibitor concentration 16 μg mL^–1
[2] = test system: E. coli TG1 + pBGS18 + CMY-2; experiment: as above; type: cell-based, Escherichia coli; conditions: for MIC: Escherichia coli; for MIC of ceftazidime in the presence of inhibitor: CMY-2 (Class C, ESBL), inhibitor concentration 16 μg mL^–1
[3] = test system: P. aeruginosa PAO ΔampD (PDC-1); experiment: as above; type: cell-based; conditions: Pseudomonas aeruginosa
[4] = test system: E. coli TG1 + pBGS18 + DHA-1; experiment: as above; type: cell-based, Escherichia coli; conditions: for MIC: Escherichia coli; for MIC of ceftazidime in the presence of inhibitor: DHA-1 (Class C, ESBL), inhibitor concentration 16 μg mL^–1
[5] = test system: E. coli MG1655 + pBGS18 + CTX-M-2; experiment: as above; type: cell-based, Escherichia coli; conditions: for MIC of ceftazidime in the presence of inhibitor: CTX-M-2 (ESBL), inhibitor concentration 16 μg mL^–1
[6] = test system: K. pneumoniae ΔompK35/36+ pBGS18+ OXA-48; experiment: MIC broth microdilution, imipenem with or without inhibitor; type: cell-based, Klebsiella pneumoniae; conditions: for MIC of imipenem in the presence of inhibitor: OXA-48 (Class D, carbapenemase), inhibitor concentration 16 μg mL^–1; for MIC: Klebsiella pneumoniae
[7] = test system: E. coli MG1655 + pBGS18 + CTX-M-14; experiment: MIC broth microdilution, ampicillin with or without inhibitor; type: cell-based, Escherichia coli; conditions: CTX-M-14 (Class A, ESBL); inhibitor concentration 16 μg mL^–1; 20 h, 37 °C
[8] = read-out: MIC of ceftazidime without an inhibitor
[9] = read-out: MIC of ceftazidime, strain without β-lactamase

Structure (SMILES) | MIC of imipenem in the presence of inhibitor [6] [μg mL^–1] | MIC of ceftazidime in the presence of inhibitor [1] [μg mL^–1] | MIC of ceftazidime in the presence of inhibitor [2] [μg mL^–1] | MIC of ampicillin in the presence of inhibitor [7] [μg mL^–1] | MIC of ceftazidime in the presence of inhibitor [4] [μg mL^–1] | MIC of ceftazidime in the presence of inhibitor [5] [μg mL^–1] | also measured
CC(C)(O/N=C(\C(=O)N[C@@H]1C(=O)N2C(C(=O)[O-])=C(C[n+]3ccccc3)CS[C@H]12)c1csc(N)n1)C(=O)O [CAZ, ceftazidime, reference compound] | – | – | – | – | – | – | MIC [1, 8]: > 64 µg/mL; MIC [1, 9]: ≤ 0.06 µg/mL; MIC [2, 8]: 16 µg/mL; MIC [2, 9]: ≤ 0.06 µg/mL; MIC [3, 8]: 8 µg/mL; MIC [3, 9]: 1 µg/mL; MIC [4, 8]: 32 µg/mL; MIC [4, 9]: ≤ 0.06 µg/mL; MIC ([5]; Escherichia coli, MG1655, read-out: MIC of ceftazidime without an inhibitor): 1020 µg/mL
C[C@]1(COC(=O)CCc2ccc(O)c(O)c2)[C@H](C(=O)[O-])N2C(=O)/C(=C/c3ccccn3)[C@H]2S1(=O)=O.[Na+] [Compound 3] | 16 | 0.12 | ≤0.06 | 32 | ≤0.06 | 2 | –
C[C@]1(COC(=O)c2cc(Cl)ccc2O)[C@H](C(=O)[O-])N2C(=O)/C(=C/c3ccccn3)[C@H]2S1(=O)=O.[Na+] [Compound 5] | 16 | 16 | – | 512 | 0.12 | 64 | –
C[C@]1(COC(=O)c2ccncc2O)[C@H](C(=O)[O-])N2C(=O)/C(=C/c3ccccn3)[C@H]2S1(=O)=O.[Na+] [Compound 7] | 16 | 0.12 | 1 | 1024 | 4 | 256 | –
CC1(C)[C@H](C(=O)[O-])N2C(=O)/C(=C/c3cc(CCCOC(=O)Cc4ccc(O)c(O)c4)ccn3)[C@H]2S1(=O)=O.[Na+] [Compound 8] | 32 | 8 | 4 | 1024 | 8 | 256 | –
C[C@@H](O)[C@H]1C(=O)N2C(C(=O)O)=C(SCCN=CN)C[C@H]12 [IP, imipenem, reference compound] | – | – | – | – | – | – | MIC ([6]; read-out: MIC of imipenem without an inhibitor): 64 µg/mL; MIC ([6]; read-out: MIC of imipenem, strain without β-lactamase): 0.5 µg/mL

Source: PMC11191083 (ACS Omega, 2024)
